# Test results taken from patent publication US5932410A, “Assay for the detection of proteases” (Commonwealth Scientific and Industrial Research …, priority 1994, dated 1999).
# Where a SMILES comes first, the peptide text is derived from it. The star is where a group is joined. Cbz = O=C(OCc1ccccc1)*
# Columns and labels:
# Trypsin [1] = test: Esterase assay, trypsin; type: biochemical; conditions: Z-AX-OMe substrate; for Esterase rate, Trypsin: X = P1 residue, rates approximately ± 10%; for % of maximum activity, Trypsin: percentage of the maximum activity
# From the text: (§1) Advantage was taken of this activity to develop an "esterase" assay which uses a pH indicator to visualise the hydrogen ion release caused by the action of proteases on peptide-ester substrates. A series of twenty compounds of the form, carbobenzoxy alanyl-X-methyl ester (Z-AX-OMe) were synthesised where "X" is one of the naturally occurring amino acids. These substrates were used in a 96 well microtitre plate assay to screen each mutant enzyme for activity and specificity. The reactions were followed visually or quantified using a standard ELISA plate reader. The esterase assay, using trypsin as a test enzyme and Z-Ala-Arg-OMe as substrate, was more sensitive as than traditional trypsin substrates (three times the rate obtained with benzoyl arginine ethyl aster and twenty times the rate of benzoyl arginine p-nitroanilide) (Whittaker et al., Analytical Biochemistry, 220, 238-243, 1994).
# (§2) The present inventors produced a panel of substrates carbobenzoxy alanyl-X-methyl eater (Z-AX-OMe) where X is one of the naturally occurring amino acids. The reactivity of these substrates with a number of serine proteases is set out in Table 1 and FIG. 1.
# (§3) Rates are A580 change/min./mg protease. Rates are also shown as a […]
# Proteinase K = Proteinase K (Parengyodontium album, UniProt P06873); test: Esterase assay, proteinase K; type: biochemical; conditions: Z-AX-OMe substrate; for Esterase rate, Proteinase K: X = P1 residue, rates approximately ± 10%; for % of maximum activity, Proteinase K: percentage of the maximum activity
# From the text: as §1, §2, §3
# α-Lytic protease = α-Lytic protease (Lysobacter enzymogenes, UniProt P00778); test: Esterase assay, α-lytic protease; type: biochemical; conditions: Z-AX-OMe substrate; for Esterase rate, α-Lytic protease: X = P1 residue, rates approximately ± 10%; for % activity, α-Lytic protease: normalised to alanine
# From the text: as §1, §2, §3
# Subtilisin = test: Esterase assay, subtilisin; type: biochemical; conditions: Z-AX-OMe substrate; for Esterase rate, Subtilisin: X = P1 residue, rates approximately ± 10%; for % of maximum activity, Subtilisin: percentage of the maximum activity
# From the text: as §1, §2, §3
# [2] = biological target: prostate specific antigen (PSA) (Homo sapiens, UniProt P07288); test: Esterase assay, PSA on peptide ester substrates; type: biochemical; conditions: for Substrate preference of PSA: within the substrate series tested; for Rate relative to Ac-AlaValTyr-OMe (218): rate of hydrolysis
# From the text: Advantage was taken of this activity to develop an "esterase" assay which uses a pH indicator to visualise the hydrogen ion release caused by the action of proteases on peptide-ester substrates. A series of twenty compounds of the form, carbobenzoxy alanyl-X-methyl ester (Z-AX-OMe) were synthesised where "X" is one of the naturally occurring amino acids. These substrates were used in a 96 well microtitre plate assay to screen each mutant enzyme for activity and specificity. The reactions were followed visually or quantified using a standard ELISA plate reader.
# In all eleven compounds were synthesised and purified and tested where X was the residue listed below.
# Chymotrypsin = Chymotrypsin (Bos taurus, UniProt P00766); test: Esterase assay, chymotrypsin; type: biochemical; conditions: Z-AX-OMe substrate; for Esterase rate, Chymotrypsin: X = P1 residue, rates approximately ± 10%; for % of maximum activity, Chymotrypsin: percentage of the maximum activity
# From the text: as §1, §2, §3
# Elastase = Elastase (Sus scrofa, UniProt P00772); test: Esterase assay, elastase; type: biochemical; conditions: Z-AX-OMe substrate; for Esterase rate, Elastase: X = P1 residue, rates approximately ± 10%; for % activity, Elastase: normalised to alanine
# From the text: as §1, §2, §3
# Thrombin = Thrombin (Homo sapiens, UniProt P00734); test: Esterase assay, thrombin; type: biochemical; conditions: Z-AX-OMe substrate; for Esterase rate, Thrombin: X = P1 residue, rates approximately ± 10%; for % of maximum activity, Thrombin: percentage of the maximum activity
# From the text: as §1, §2, §3
# Trypsin [3] = conditions: trypsin as test enzyme; cited from earlier work
# [4] = substrates of the form Ac-Ala-x-TyrOMe, FIG. 2
# prostate specific antigen (PSA), sequence (P07288 25-261): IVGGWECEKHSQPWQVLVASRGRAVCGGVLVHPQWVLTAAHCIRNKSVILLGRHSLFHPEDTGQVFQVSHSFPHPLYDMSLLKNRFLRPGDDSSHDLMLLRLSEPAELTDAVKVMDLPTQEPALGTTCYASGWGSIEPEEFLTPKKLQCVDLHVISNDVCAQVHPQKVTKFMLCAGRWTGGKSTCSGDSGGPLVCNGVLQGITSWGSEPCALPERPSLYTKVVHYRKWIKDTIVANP
# Proteinase K, sequence (P06873 106-384): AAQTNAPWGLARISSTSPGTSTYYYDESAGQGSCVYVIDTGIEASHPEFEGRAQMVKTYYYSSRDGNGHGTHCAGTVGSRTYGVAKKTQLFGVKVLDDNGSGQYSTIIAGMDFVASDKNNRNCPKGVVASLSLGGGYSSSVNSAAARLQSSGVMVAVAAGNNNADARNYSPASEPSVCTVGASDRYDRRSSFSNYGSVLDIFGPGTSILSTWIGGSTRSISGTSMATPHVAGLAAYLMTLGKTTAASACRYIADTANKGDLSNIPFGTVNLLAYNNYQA
# α-Lytic protease, sequence (P00778 25-397 limits assumed): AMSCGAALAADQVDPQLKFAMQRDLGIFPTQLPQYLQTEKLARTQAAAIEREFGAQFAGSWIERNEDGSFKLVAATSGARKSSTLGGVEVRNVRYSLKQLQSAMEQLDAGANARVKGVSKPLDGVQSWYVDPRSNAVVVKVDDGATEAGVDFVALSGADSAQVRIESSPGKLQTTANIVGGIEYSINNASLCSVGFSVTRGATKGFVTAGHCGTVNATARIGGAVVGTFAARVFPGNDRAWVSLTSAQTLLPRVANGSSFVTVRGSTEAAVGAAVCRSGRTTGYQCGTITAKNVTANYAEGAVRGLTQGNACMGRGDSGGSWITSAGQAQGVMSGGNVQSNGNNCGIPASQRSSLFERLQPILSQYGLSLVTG
# Elastase, sequence (P00772 27-266): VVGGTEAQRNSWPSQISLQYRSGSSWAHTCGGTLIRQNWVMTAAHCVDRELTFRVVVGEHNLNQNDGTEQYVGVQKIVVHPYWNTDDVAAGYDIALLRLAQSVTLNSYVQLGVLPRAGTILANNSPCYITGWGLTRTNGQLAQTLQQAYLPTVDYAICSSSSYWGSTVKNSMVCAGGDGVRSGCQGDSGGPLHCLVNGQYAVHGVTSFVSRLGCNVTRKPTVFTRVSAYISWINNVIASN
Compound,"Esterase rate, Trypsin (Trypsin [1])","% of maximum activity, Trypsin (Trypsin [1])","Esterase rate, Proteinase K (Proteinase K)","% of maximum activity, Proteinase K (Proteinase K)","Esterase rate, α-Lytic protease (α-Lytic protease)","% activity, α-Lytic protease (α-Lytic protease)","Esterase rate, Subtilisin (Subtilisin)","% of maximum activity, Subtilisin (Subtilisin)","Esterase rate, Chymotrypsin (Chymotrypsin)","% of maximum activity, Chymotrypsin (Chymotrypsin)","Esterase rate, Elastase (Elastase)","% activity, Elastase (Elastase)","Esterase rate, Thrombin (Thrombin)","% of maximum activity, Thrombin (Thrombin)",further results
"COC(=O)[C@H](Cc1ccc(O)cc1)NC(=O)[C@H](C)NC(=O)OCc1ccccc1 [Tyr, Z-Ala-Tyr-OMe] (Cbz-Ala-Tyr-OMe)",10.8 A580 change/min./mg protease,3.0%,80 A580 change/min./mg protease,10.3%,0 A580 change/min./mg protease,0%,345 A580 change/min./mg protease,16.1%,55.2 A580 change/min./mg protease,100%,0 A580 change/min./mg protease,0%,0 A580 change/min./mg protease,0%,Substrate preference of PSA [2]: preferred substrate
"COC(=O)[C@H](Cc1ccc(O)cc1)NC(=O)[C@@H](NC(=O)[C@H](C)NC(C)=O)C(C)C [Substrate 218, Ac-AlaValTyr-OMe] (Ac-Ala-Val-Tyr-OMe)",,,,,,,,,,,,,,,"Rate relative to Z-AlaTyr OMe (the screening substrate) ([2]; PSA, from the graph (FIG. 2)): 15.5; Substrate preference of PSA [2]: best"
COC(=O)[C@H](Cc1ccc(O)cc1)NC(=O)[C@H](CC(C)C)NC(=O)[C@H](C)NC(C)=O [Ac-AlaLeuTyr-OMe] (Ac-Ala-Leu-Tyr-OMe),,,,,,,,,,,,,,,Rate relative to Ac-AlaValTyr-OMe (218) ([2]; PSA): 70%
"COC(=O)[C@H](CCCNC(=N)N)NC(=O)[C@H](C)NC(=O)OCc1ccccc1 [Arg, Z-Ala-Arg-OMe] (Cbz-Ala-Arg-OMe)",355.4 A580 change/min./mg protease,100%,24 A580 change/min./mg protease,3.1%,0 A580 change/min./mg protease,0%,97 A580 change/min./mg protease,4.5%,1.1 A580 change/min./mg protease,2.0%,0 A580 change/min./mg protease,0%,8.7 A580 change/min./mg protease,100%,Rate relative to benzoyl arginine ethyl ester (Trypsin [3]): three times; Rate relative to benzoyl arginine p-nitroanilide (Trypsin [3]): twenty times
COC(=O)[C@H](Cc1ccc(O)cc1)NC(=O)[C@@H](NC(=O)[C@H](C)NC(=O)[C@@H](NC(C)=O)C(C)C)C(C)C [Ac-Val AlaValTyr-OMe] (Ac-VAVY-OMe),,,,,,,,,,,,,,,Rate relative to Ac-AlaValTyr-OMe (218) ([2]; PSA): 64.6%
COC(=O)[C@H](CCC(N)=O)NC(=O)[C@H](C)NC(=O)OCc1ccccc1 [Gln] (Cbz-Ala-Gln-OMe),0 A580 change/min./mg protease,0%,553 A580 change/min./mg protease,71.4%,0 A580 change/min./mg protease,0%,1308 A580 change/min./mg protease,60.9%,0.5 A580 change/min./mg protease,0.9%,0 A580 change/min./mg protease,0%,0 A580 change/min./mg protease,0%,
COC(=O)CNC(=O)[C@H](C)NC(=O)OCc1ccccc1 [Gly] (Cbz-Ala-Gly-OMe),0 A580 change/min./mg protease,0%,58 A580 change/min./mg protease,7.5%,0 A580 change/min./mg protease,0%,22 A580 change/min./mg protease,1.0%,0 A580 change/min./mg protease,0%,0 A580 change/min./mg protease,0%,0 A580 change/min./mg protease,0%,
COC(=O)[C@@H](NC(=O)[C@H](C)NC(=O)OCc1ccccc1)C(C)C [Val] (Cbz-Ala-Val-OMe),0 A580 change/min./mg protease,0%,97 A580 change/min./mg protease,12.5%,1.3 A580 change/min./mg protease,21.0%,35 A580 change/min./mg protease,1.6%,0 A580 change/min./mg protease,0%,2.1 A580 change/min./mg protease,13.4%,0 A580 change/min./mg protease,0%,
COC(=O)[C@H](CO)NC(=O)[C@H](C)NC(=O)OCc1ccccc1 [Ser] (Cbz-Ala-Ser-OMe),0 A580 change/min./mg protease,0%,348 A580 change/min./mg protease,44.9%,0.7 A580 change/min./mg protease,11.3%,366 A580 change/min./mg protease,17.0%,trace,,0.4 A580 change/min./mg protease,3.6%,0 A580 change/min./mg protease,0%,
COC(=O)[C@@H](NC(=O)[C@H](C)NC(=O)OCc1ccccc1)[C@@H](C)O [Thr] (Cbz-Ala-Thr-OMe),0 A580 change/min./mg protease,0%,90 A580 change/min./mg protease,11.6%,4.2 A580 change/min./mg protease,67.7%,123 A580 change/min./mg protease,5.7%,trace,,3.1 A580 change/min./mg protease,19.7%,0 A580 change/min./mg protease,0%,
COC(=O)[C@H](CS)NC(=O)[C@H](C)NC(=O)OCc1ccccc1 [Cys] (Cbz-Ala-Cys-OMe),0 A580 change/min./mg protease,0%,392 A580 change/min./mg protease,50.6%,8.5 A580 change/min./mg protease,137.1%,1251 A580 change/min./mg protease,58.2%,0.4 A580 change/min./mg protease,0.7%,86.1 A580 change/min./mg protease,548.4%,0 A580 change/min./mg protease,0%,
"PSA: prostate specific antigen, a protease; the enzyme tested on the substrates",,,,,,,,,,,,,,,"Rate of PSA [2, 4]: 0.0263 OD580 change/min/μg; Rate of PSA, equivalent [2, 4]: 9.99 μmoles substrate/min/mg"
COC(=O)[C@H](Cc1c[nH]c2ccccc12)NC(=O)[C@H](C)NC(=O)OCc1ccccc1 [Trp] (Cbz-Ala-Trp-OMe),trace,,353 A580 change/min./mg protease,45.5%,0 A580 change/min./mg protease,0%,216 A580 change/min./mg protease,10.1%,27.2 A580 change/min./mg protease,49.3%,0 A580 change/min./mg protease,0%,0 A580 change/min./mg protease,0%,
